Laboratory results: patent publication US9801844B2, “Methods and compositions for the treatment of cancer” (priority 2012, dated 2017)
“And” between values parts separate entries of the source, which are not always exact repeats. Equal values may be shown once.

Columns and labels:
Format in all cases: cell-based
[1] = system: MDA-MB-453 Her2 overexpressing human breast cancer cells; experiment: MTT cell proliferation assay on MDA-MB-453 cells; conditions: for Proliferation (relative to control = 1) / % proliferation: MDA-MB-453, 96 h
Description: MTT assay: the MTT {3-(4,5-dimethyl-2-thiazol)-2,5-diphenyl-2H tetrazolilum bromide} (Dojindo; Tokyo, Japan) cell proliferation assay system (Roche Diagnostic, Mannheim, Germany) was used to determine the sensitivity of the various cell lines to agents. Cells were seeded at 1×10^4 cells/well in 96-well plates and allowed to attach for 24 h. The medium was replaced with fresh medium containing DMSO or compound. The cells were treated for 96 or 120 h, after which they were incubated with MTT reagents and the absorbance read at 650 and 575 nm. For cell growth assays, the data are expressed as mean+/−standard deviation. Control and treated cells were compared using the student's t-test (p<0.05).
Cells were exposed to increasing concentrations of agents for 96 h and the number of viable cells determined by the MTT assay.

[2] = system: MCF7 (ER positive, Her2 low) cells; experiment: MTT cell proliferation assay on MCF7 cells; conditions: Homo sapiens, read-out: IC50 growth inhibition
Description: (§1) MDA-MB-453 (ER negative, Her2 overexpressing), MDA-MB-468 (triple negative) and MCF7 (ER positive, Her2 low) cells, HT29 (p53 positive human colon cancer cells) (ATCC, Manassas, Va.) were grown in Dulbecco's Modified Eagle's medium (DMEM) (Gibco BRL Life Technologies, Inc., Rockville, Md.) containing 10% (v/v) fetal bovine serum (FBS) (Gibco BRL) at 37° C., 5% C02. SUM 149 (Her2 overexpressing, ER low) (the gift of Dr. R. Parsons, Columbia University Medical Center, New York, N.Y.) were cultivated in Ham's F-12 medium with 10% FBS. MCF7 and MCF7/Her2-18 (MCF7 cells transfected with a full length Her2 cDNA coding region, 45-fold increase Her2) were the kind gift of Dr. Dennis Slamon (Los Angeles, Calif.). These cells were maintained in RPMI supplemented with 10% FBS plus glutamine (1%) and PSF (1%) (Gibco, Rockville Md.).
(§2) MTT assay: the MTT {3-(4,5-dimethyl-2-thiazol)-2,5-diphenyl-2H tetrazolilum bromide} (Dojindo; Tokyo, Japan) cell proliferation assay system (Roche Diagnostic, Mannheim, Germany) was used to determine the sensitivity of the various cell lines to agents. Cells were seeded at 1×10^4 cells/well in 96-well plates and allowed to attach for 24 h. […] The cells were treated for 96 or 120 h, after which they were incubated with MTT reagents and the absorbance read at 650 and 575 nm. For cell growth assays, the data are expressed as mean+/−standard deviation. […]

[3] = system: MCF7/Her2-18 cells; experiment: MTT cell proliferation assay on MCF7/Her2-18 cells; conditions: Homo sapiens; MCF7/Her2-18 (45-fold increase Her2); read-out: IC50 growth inhibition
Description: as §1, §2

[4] = system: MDA-MB-453 human breast cancer cells; experiment: Cell cycle analysis by DNA flow cytometry; conditions: 48 h
Description: For cell cycle analysis the cells were plated (3×105) onto 6 cm dishes and allowed to attach for 24 h. Then the medium was replaced with DMEM containing 10% FBS and DMSO or agents. After 48 h, the cells were analyzed by DNA flow cytometry.
To examine the effects of rosemary on the cell cycle, MDA-MB-453 human breast cancer cells were treated with rosemary extract enriched for CA (50%) at 40 or 80 μg/ml and purified CA at 10, 20 or 40 μg/ml for 48 h. The cells were then stained with propidium iodide and the stained cells were analyzed by DNA flow cytometry (Table 1).
MDA-MB-453 cells were treated with 0, 10, 20, or 40 μg/ml of carnosic acid or 40, 80 μg/ml of rosemary extract (carnosic acid: 50%), and analyzed at 48 hr by DNA flow cytometry. The values indicate the % of cells in the cell cycle phases.

[5] = system: SUM149 cells; experiment: Real-time RT-PCR of specific mRNAs in SUM149 cells; conditions: 4 μg/ml, 6 h
Description: Real-time RT-PCR analysis was performed on 2 technical replicates of at least 2 biological sample replicates.
Real-time quantitative RT-PCR methods were used to determine the nature of the RNA induced by treatment with CA, using the Real Time PCR machine Stratagene MX3005P QPCR System.
Real-time RT-PCR analysis was performed to examine the mode of action of CA. In MDA-MB-468 cells, CA at 4 μg/ml induced an increase in expression of RNA of the tumor suppressor gene CDKN1A; for MDA-MB-468 cells (6 h: 1.51-logfold; 24 h: 1.61-logfold) (FIG. 3A); for SUM149 cells (6 h: 2.7-logfold). CA had little effect on the expression of the tumor suppressor gene BRCA1.

Structure (SMILES): CC(C)c1cc2c(c(O)c1O)[C@@]1(C(=O)O)CCCC(C)(C)[C@@H]1CC2 [carnosic acid]
- inhibition of cell growth ([1]; 0.5 μg/ml, 96 h, MTT): no inhibition
- Proliferation (relative to control = 1) ([1]; 0.5 ug/ml, MTT): 1.07
- % proliferation ([1]; 0.5 μg/ml, MTT): 107%
- Proliferation (relative to control = 1) ([1]; 2 ug/ml, MTT): 0.989
- % proliferation ([1]; 2 μg/ml, MTT): 98.9%
- Proliferation (relative to control = 1) ([1]; 5 ug/ml, MTT): 0.915
- % proliferation ([1]; 5 μg/ml, MTT): 91.5%
- Proliferation (relative to control = 1) ([1]; 10 ug/ml, MTT): 0.758
- Proliferation (relative to control = 1) ([1]; 20 ug/ml, MTT): 0.573
- IC50 ([1]; Homo sapiens, MDA-MB-453 cells, MTT assay, read-out: IC50, concentration that caused 50% inhibition of cell proliferation): 3 µg/mL and 7 µM
- IC50 [2]: 25 µg/mL and 75 µM
- IC50 [3]: 9 µg/mL and 27 µM
- % of Cells G1 ([4]; 10 ug/ml): 51.2%
- % of Cells G2 ([4]; 10 ug/ml): 11.8%
- % of Cells Sub G1 ([4]; 10 ug/ml): 1.5%
- % of Cells S ([4]; 10 ug/ul): 31.2%
- % of Cells G1 ([4]; 20 ug/ml): 71.9%
- % of Cells G2 ([4]; 20 ug/ml): 9.1%
- % of Cells Sub G1 ([4]; 20 ug/ml): 1.7%
- % of Cells S ([4]; 20 ug/ul): 15.3%
- % of Cells G1 ([4]; 40 ug/ml): 50.8%
- % of Cells G2 ([4]; 40 ug/ml): 13.9%
- % of Cells Sub G1 ([4]; 40 ug/ml): 1.6%
- % of Cells S ([4]; 40 ug/ul): 28.9%
- increase in expression of RNA of CDKN1A [5]: 2.7 logfold
